Experimental data taken from ChEMBL document CHEMBL5385848, “Discovery of novel hydroxyamidine based indoleamine 2,3-dioxygenase 1 (IDO1) and thioredoxin reductase 1 (TrxR1) dual inhibitors” (Eur J Med Chem, 2023).
Calls of active or inactive are those of the source. The calls are words filed in the database; no cut-off is given here.

Key:
HCT-116 [1] = assay: Induction of apoptosis in human HCT-116 cells assessed as apoptotic rate at 2.5 uM pretreated with NAC incubated for 24 hrs by Annexin-V/PI staining based flow cytometry analysis (reference value: 9.8 +/- 1.59%); assay type: functional
[2] = Cytotoxicity against human HCT-116 cells incubated for 48 hrs by CCK-8 assay; assay type: toxicity, cell-based
[3] = biological target: Indoleamine 2,3-dioxygenase 1 (Homo sapiens, UniProt P14902); assay: Inhibition of IDO1 in human HCT-116 cells using L-Tryptophan as substrate incubated for 24 hrs by microplate reader analysis; assay type: cell-based
Chain of Indoleamine 2,3-dioxygenase 1 (P14902 whole entry): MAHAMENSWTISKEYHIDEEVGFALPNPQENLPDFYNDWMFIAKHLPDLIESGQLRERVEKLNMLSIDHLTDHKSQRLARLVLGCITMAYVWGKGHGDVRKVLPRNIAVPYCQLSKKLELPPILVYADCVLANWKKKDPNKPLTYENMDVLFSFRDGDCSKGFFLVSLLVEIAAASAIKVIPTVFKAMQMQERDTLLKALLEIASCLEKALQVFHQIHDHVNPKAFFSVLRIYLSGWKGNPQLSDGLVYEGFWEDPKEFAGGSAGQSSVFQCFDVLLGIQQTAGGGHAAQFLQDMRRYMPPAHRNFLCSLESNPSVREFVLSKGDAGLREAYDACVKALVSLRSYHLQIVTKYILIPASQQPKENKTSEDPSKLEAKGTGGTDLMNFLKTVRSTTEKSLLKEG

[4] = biological target: T1, Indoleamine 2,3-dioxygenase 2 (Homo sapiens, UniProt Q6ZQW0); assay: Inhibition of IDO2 (unknown origin) using D-Trp as substrate incubated for 1 hr
T1 sequence (Q6ZQW0 whole entry): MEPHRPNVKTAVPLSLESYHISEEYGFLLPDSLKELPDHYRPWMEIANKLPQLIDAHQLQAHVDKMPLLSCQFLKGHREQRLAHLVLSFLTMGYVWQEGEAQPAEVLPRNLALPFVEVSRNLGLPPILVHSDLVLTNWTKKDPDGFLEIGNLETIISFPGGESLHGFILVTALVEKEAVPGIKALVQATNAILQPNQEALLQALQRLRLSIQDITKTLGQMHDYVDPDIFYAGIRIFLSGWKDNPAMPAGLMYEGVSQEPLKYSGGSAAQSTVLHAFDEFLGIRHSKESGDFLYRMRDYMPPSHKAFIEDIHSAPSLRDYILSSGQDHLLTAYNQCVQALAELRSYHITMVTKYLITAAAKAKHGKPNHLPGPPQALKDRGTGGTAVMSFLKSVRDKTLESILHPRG

Thioredoxin reductase 3 = biological target: T2, Thioredoxin reductase 3 (Homo sapiens, UniProt Q86VQ6); assay: Inhibition of TrxR3 (unknown origin) incubated for 1 hr in presence of NADPH by microplate reader analysis
T2 sequence (Q86VQ6 whole entry): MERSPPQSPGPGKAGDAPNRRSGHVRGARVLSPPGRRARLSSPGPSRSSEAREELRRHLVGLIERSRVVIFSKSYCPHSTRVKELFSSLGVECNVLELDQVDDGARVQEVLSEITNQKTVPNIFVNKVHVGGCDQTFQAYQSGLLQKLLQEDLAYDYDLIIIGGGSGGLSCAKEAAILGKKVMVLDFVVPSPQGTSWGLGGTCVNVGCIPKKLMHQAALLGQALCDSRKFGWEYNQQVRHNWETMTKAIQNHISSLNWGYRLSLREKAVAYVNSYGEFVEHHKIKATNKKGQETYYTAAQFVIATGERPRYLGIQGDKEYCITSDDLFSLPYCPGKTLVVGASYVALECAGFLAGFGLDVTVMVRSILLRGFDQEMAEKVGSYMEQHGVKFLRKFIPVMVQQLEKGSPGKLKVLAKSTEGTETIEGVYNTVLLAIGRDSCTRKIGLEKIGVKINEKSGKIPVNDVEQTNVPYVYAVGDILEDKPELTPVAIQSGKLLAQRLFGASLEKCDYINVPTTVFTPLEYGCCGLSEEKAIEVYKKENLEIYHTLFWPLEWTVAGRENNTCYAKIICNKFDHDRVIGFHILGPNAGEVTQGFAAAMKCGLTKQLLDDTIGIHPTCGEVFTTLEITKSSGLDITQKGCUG

[5] = biological target: Thioredoxin reductase 2, mitochondrial (Homo sapiens, UniProt Q9NNW7); assay: Inhibition of TrxR2 (unknown origin) incubated for 1 hr in presence of NADPH by microplate reader analysis
Chain of Thioredoxin reductase 2, mitochondrial (Q9NNW7 whole entry): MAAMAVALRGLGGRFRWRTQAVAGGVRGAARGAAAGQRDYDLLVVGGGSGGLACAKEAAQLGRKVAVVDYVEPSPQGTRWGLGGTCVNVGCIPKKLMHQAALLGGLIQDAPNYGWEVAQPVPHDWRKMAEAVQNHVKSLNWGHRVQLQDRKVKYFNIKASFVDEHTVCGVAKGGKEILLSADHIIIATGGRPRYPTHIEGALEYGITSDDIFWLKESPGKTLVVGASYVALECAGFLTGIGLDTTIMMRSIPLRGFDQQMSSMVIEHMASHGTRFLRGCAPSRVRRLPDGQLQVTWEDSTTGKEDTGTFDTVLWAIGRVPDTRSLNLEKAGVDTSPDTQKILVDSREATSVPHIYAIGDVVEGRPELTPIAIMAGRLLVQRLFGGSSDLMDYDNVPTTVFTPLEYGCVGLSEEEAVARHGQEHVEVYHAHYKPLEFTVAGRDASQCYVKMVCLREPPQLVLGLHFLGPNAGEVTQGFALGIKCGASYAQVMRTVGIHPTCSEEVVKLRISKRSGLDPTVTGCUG

HCT-116 [6] = assay: Cytotoxicity against human HCT-116 cells incubated for 24 hrs CCK-8 assay; assay type: functional, cell-based; conditions: HCT-116, 24 h
HCT-116 [7] = assay: Cytotoxicity against human HCT-116 cells incubated for 24 hrs in presence of NAC CCK-8 assay; assay type: functional, cell-based; conditions: HCT-116, 24 h
HCT-116 [8] = assay: Cytotoxicity against TrxR1 knockdown human HCT-116 cells incubated for 24 hrs by CCK-8 assay (reference value: 3.08 +/- 0.55 uM); assay type: functional, cell-based; conditions: HCT-116, 24 h
HeLa [9] = assay: Cytotoxicity against IDO1 knockdown human HeLa cells incubated for 24 hrs by CCK-8 assay (reference value: 45.93 +/- 2.23 nM); assay type: functional, cell-based
HeLa [10] = assay: Cytotoxicity against human HeLa cells transfected with TrxR1 siRNA incubated for 24 hrs by CCK-8 assay (reference value: 9.74 +/- 1.64 uM); assay type: functional, cell-based
[11] = biological target: Indoleamine 2,3-dioxygenase 1 (Mus musculus) (UniProt P28776); assay: In vivo inhibition of IDO1 in BALB/c mouse implanted with mouse CT-26 cells assessed as reduction in tumor Kyn/Trp ratio at 60 mg/kg, po administered once daily by LC-MS/MS analysis; assay type: functional, organism-based
Chain of Indoleamine 2,3-dioxygenase 1 (Mus musculus) (P28776 whole entry, looked up): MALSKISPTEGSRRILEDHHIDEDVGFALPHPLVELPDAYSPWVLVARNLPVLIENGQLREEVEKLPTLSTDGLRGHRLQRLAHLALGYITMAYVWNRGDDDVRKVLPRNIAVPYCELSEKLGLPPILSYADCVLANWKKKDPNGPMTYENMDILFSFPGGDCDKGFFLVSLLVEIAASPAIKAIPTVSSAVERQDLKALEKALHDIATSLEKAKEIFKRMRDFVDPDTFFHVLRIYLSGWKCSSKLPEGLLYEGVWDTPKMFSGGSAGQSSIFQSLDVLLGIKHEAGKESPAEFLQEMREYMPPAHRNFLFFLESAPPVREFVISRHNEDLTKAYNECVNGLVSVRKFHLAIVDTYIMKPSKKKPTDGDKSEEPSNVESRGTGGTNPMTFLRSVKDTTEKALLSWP

CT26 [12] = assay: Antitumor activity against ig dosed mouse CT26 cells implanted in […] BALB/c mouse assessed as reduction in tumor volume administered daily for 28 days and measured every 4 days; assay type: functional, organism-based; conditions: dose 15-60 mg/kg, time 28.0 day
CT26 [13] = assay: Antitumor activity against ig dosed mouse CT26 cells implanted in […] BALB/c mouse assessed as reduction in tumor weight administered daily for 28 days and measured every 4 days; assay type: functional, organism-based; conditions: dose 15-60 mg/kg, time 28.0 day
CT26 [14] = assay: Antitumor activity against mouse CT26 cells implanted in […] BALB/c mouse assessed as increase in CD8 T lymphocytes at 15 to 60 mg/kg, ig administered daily for 28 days and measured every 4 days; assay type: functional, organism-based; conditions: dose 15-60 mg/kg, time 28.0 day
CT26 [15] = assay: Antitumor activity against mouse CT26 cells implanted in […] BALB/c mouse assessed as increase in CD4 Th lymphocytes at 15 to 60 mg/kg, ig administered daily for 28 days and measured every 4 days; assay type: functional, organism-based; conditions: dose 15-60 mg/kg, time 28.0 day
CT26 [16] = assay: Antitumor activity against mouse CT26 cells implanted in athymic nude BALB/c mouse assessed as reduction in CD4+CD25+Foxp3+ lymphocytes at 15 to 60 mg/kg, ig administered daily for 28 days and measured every 4 days by immunofluorescence analysis; assay type: functional, organism-based; conditions: dose 15-60 mg/kg, time 28.0 day
CT26 [17] = assay: Antitumor activity against mouse CT26 cells implanted in athymic nude BALB/c mouse assessed as reduction in nTreg lymphocytes at 15 to 60 mg/kg, ig administered daily for 28 days and measured every 4 days by immunofluorescence analysis; assay type: functional, organism-based; conditions: dose 15-60 mg/kg, time 28.0 day
CT26 [18] = assay: Antitumor activity against mouse CT26 cells implanted in athymic nude BALB/c mouse assessed as reduction in proliferative nTreg lymphocytes at 15 to 60 mg/kg, ig administered daily for 28 days and measured every 4 days by immunofluorescence analysis; assay type: functional, organism-based; conditions: dose 15-60 mg/kg, time 28.0 day
[19] = Toxicity in athymic BALB/c mouse xenografted with human HCT-116 cells assessed as effect on body weight at 15 to 60 mg/kg, ig administered daily for 28 days and measured every 4 days; assay type: organism-based; conditions: in vivo, po, 672 h, dose 15-60 mg/kg, time 28 day
HCT-116 [20] = assay: Antitumor activity against human HCT-116 cells xenografted in athymic nude BALB/c mouse assessed as increase in necrosis of tumor cells at 15 to 60 mg/kg, ig administered daily for 28 days and measured every 4 days; assay type: functional, organism-based; conditions: dose 15-60 mg/kg, time 28.0 day

For O=C(Cc1ccc(O)cc1)Nc1nnc(CCCNc2nonc2/C(=N\O)Nc2ccc(F)c(Br)c2)s1, the Activity (HCT-116 [1]) was 10.37%, the IC50 at 48 h [2] was 3.44 µM and the EC50 [3] was 34.1 µM. The IC50 [4] was 22.2 µM, the IC50 (Thioredoxin reductase 3) was > 500 µM and the IC50 [5] was > 500 µM. The IC50 (HCT-116 [6]) was 3.33 µM, the IC50 (HCT-116 [7]) was 60.8 µM and the IC50 (HCT-116 [8]) was 1.52 µM. The IC50 (HeLa [9]) was 26.1 µM, the IC50 (HeLa [10]) was 4.86 µM and the Activity [11] was “Active”. For the same compound, the Activity (CT26 [12]) was “Dose-Dependent Effect”, the Activity (CT26 [13]) was “Dose-Dependent Effect” and the Activity (CT26 [14]) was “Active”. For the same compound, the Activity (CT26 [15]) was “Active”, the Activity (CT26 [16]) was “Active” and the Activity (CT26 [17]) was “Active”. The Activity (CT26 [18]) was “Active”, the Activity [19] was “Non-Toxic” and the Activity (HCT-116 [20]) was “Active”.
